PMC11859928, “Design, Synthesis, and Antiproliferative Activity of Novel Indole/1,2,4-Triazole Hybrids as Tubulin Polymerization Inhibitors” (Pharmaceuticals, 2025)

Key:
ACHN = test: NCI one-dose assay; assay type: cell-based; conditions: Homo sapiens, Renal cancer, read-out: Cell growth inhibition %
BT-549 = test: NCI one-dose assay; assay type: cell-based; conditions: Homo sapiens, BT-549, Breast cancer, read-out: Cell growth inhibition %
DU-145 = test: NCI one-dose assay; assay type: cell-based; conditions: Homo sapiens, DU-145, Prostate cancer, read-out: Cell growth inhibition %
IGROV1 = test: NCI one-dose assay; assay type: cell-based; conditions: Homo sapiens, IGROV-1, IGROV1, Ovarian cancer, read-out: Cell growth inhibition %
MALME-3M = test: NCI one-dose assay; assay type: cell-based; conditions: Homo sapiens, Melanoma, read-out: Cell growth inhibition %
MCF7 = test: NCI one-dose assay; assay type: cell-based; conditions: Homo sapiens, MCF7, Breast cancer, read-out: Cell growth inhibition %
MDA-MB-468 = test: NCI one-dose assay; assay type: cell-based; conditions: Homo sapiens, MDA-MB-468, Breast cancer, read-out: Cell growth inhibition %
NCI-H226 = test: NCI one-dose assay; assay type: cell-based; conditions: Homo sapiens, NCI-H226, Non-small cell lung cancer, read-out: Cell growth inhibition %
NCI-H23 = test: NCI one-dose assay; assay type: cell-based; conditions: Homo sapiens, NCI-H23, Non-small cell lung cancer, read-out: Cell growth inhibition %
NCI-H460 = test: NCI one-dose assay; assay type: cell-based; conditions: Homo sapiens, NCI-H460, Non-small cell lung cancer, read-out: Cell growth inhibition %
NCI-H522 = test: NCI one-dose assay; assay type: cell-based; conditions: Homo sapiens, NCI-H522, Non-small cell lung cancer, read-out: Cell growth inhibition %
NCI/ADR-RES = test: NCI one-dose assay; assay type: cell-based; conditions: Homo sapiens, Ovarian cancer, read-out: Cell growth inhibition %
OVCAR-4 = test: NCI one-dose assay; assay type: cell-based; conditions: Homo sapiens, OVCAR-4, Ovarian cancer, read-out: Cell growth inhibition %
OVCAR-5 = test: NCI one-dose assay; assay type: cell-based; conditions: Homo sapiens, OVCAR-5, Ovarian cancer, read-out: Cell growth inhibition %
PC-3 = test: NCI one-dose assay; assay type: cell-based; conditions: Homo sapiens, PC-3, Prostate cancer, read-out: Cell growth inhibition %
RXF 393 = test: NCI one-dose assay; assay type: cell-based; conditions: Homo sapiens, RXF 393, Renal cancer, read-out: Cell growth inhibition %
SK-MEL-28 = test: NCI one-dose assay; assay type: cell-based; conditions: Homo sapiens, SK-MEL-28, Melanoma, read-out: Cell growth inhibition %
SK-OV-3 = test: NCI one-dose assay; assay type: cell-based; conditions: Homo sapiens, SK-OV-3, Ovarian cancer, read-out: Cell growth inhibition %
SN12C = test: NCI one-dose assay; assay type: cell-based; conditions: Homo sapiens, Renal cancer, read-out: Cell growth inhibition %
SNB-19 = test: NCI one-dose assay; assay type: cell-based; conditions: Homo sapiens, SNB-19, CNS cancer, read-out: Cell growth inhibition %
SR = test: NCI one-dose assay; assay type: cell-based; conditions: Homo sapiens, Leukemia, read-out: Cell growth inhibition %
TK-10 = test: NCI one-dose assay; assay type: cell-based; conditions: Homo sapiens, TK-10, Renal cancer, read-out: Cell growth inhibition %
NCI 60 cell lines = test: NCI one-dose assay, full panel; assay type: cell-based, human; conditions: for anticancer activity (in words): across all cell lines, 10 µM
Description: The National Cancer Institute (NCI), Bethesda, USA, selected the final compounds 6a–j and 7a–j for in vitro anticancer screening. An initial in vitro single-dose anticancer experiment was performed with the entire NCI 60 cell lines derived from nine tumor subpanel cancer cell lines. The results for each compound were illustrated as a mean graph showing the percentage growth of treated cells compared to untreated control cells (see Supplementary Materials).
The NCI anticancer screening process has been thoroughly detailed. The Drug Evaluation Branch of the National Cancer Institute in Bethesda, […], USA, established the procedure and conducted the anticancer assay on 60 human tumor cell lines from nine neoplastic cancers.

Compound	inhibition at 10 µM (ACHN) [%]	inhibition at 10 µM (BT-549) [%]	inhibition at 10 µM (DU-145) [%]	inhibition at 10 µM (IGROV1) [%]	inhibition at 10 µM (MALME-3M) [%]	inhibition at 10 µM (MCF7) [%]	inhibition at 10 µM (MDA-MB-468) [%]	inhibition at 10 µM (NCI-H226) [%]	inhibition at 10 µM (NCI-H23) [%]	inhibition at 10 µM (NCI-H460) [%]	inhibition at 10 µM (NCI-H522) [%]	inhibition at 10 µM (NCI/ADR-RES) [%]	inhibition at 10 µM (OVCAR-4) [%]	inhibition at 10 µM (OVCAR-5) [%]	inhibition at 10 µM (PC-3) [%]	inhibition at 10 µM (RXF 393) [%]	inhibition at 10 µM (SK-MEL-28) [%]	inhibition at 10 µM (SK-OV-3) [%]	inhibition at 10 µM (SN12C) [%]	inhibition at 10 µM (SNB-19) [%]	other results
C=CCn1c(SCC(=O)c2ccc(OC)cc2)nnc1-c1c[nH]c2ccccc12 [Compound 6b, 2-((4-Allyl-5-(1H-indol-3-yl)-4H-1,2,4-triazol-3-yl)thio)-1-(4-methoxyphenyl) Ethenone]	8.68	-1.84	-11.8	11.1	5.32	5.93	5.01	7.5	5.52	-1.3	0.49	-3.74	-4.81	-2.88	20.3	-5.88	1.56	-30.5	3.73	-1.42	inhibition at 10 µM (SR): 18.5%; inhibition at 10 µM (TK-10): -40.5%; anticancer activity (in words) (NCI 60 cell lines): minimal anticancer activity
C=CCn1c(SC/C(=N\O)c2ccc(Br)cc2)nnc1-c1c[nH]c2ccccc12 [Compound 7d, (Z)-2-((4-allyl-5-(1H-indol-3-yl)-4H-1,2,4-triazol-3-yl)thio)-1-(4-bromophenyl) Ethanone Oxime]	17.9	20.4	6.21	30.8	4.84	17.9	42.2	33.6	17.9	19.7	18.5	6.71	24.5	6.82	31.6	19.3	7.82	3.28	16.3	8.36	inhibition at 10 µM (SR): 28.5%; inhibition at 10 µM (TK-10): 12.9%; inhibition at 10 µM (NCI 60 cell lines; Homo sapiens, 60 cell, eleven cell lines, read-out: growth inhibition percentage, range): 34 to 47%
C=CCn1c(SCC(=O)c2ccc(C)cc2)nnc1-c1c[nH]c2ccccc12 [Compound 6c, 2-((4-allyl-5-(1H-indol-3-yl)-4H-1,2,4-triazol-3-yl)thio)-1-(p-tolyl)ethanone]	11	2.35	-8.9	19.6	10.5	9.88	12.5	17.1	-5.98	1.59	4.55	4.65	-10.4	-2.57	22.2	-0.07	-4.91	-22.4	5.47	3.56	inhibition at 10 µM (SR): 8.97%; inhibition at 10 µM (TK-10): -39.1%
C=CCn1c(SC/C(=N\O)c2ccccc2)nnc1-c1c[nH]c2ccccc12 [Compound 7a, (Z)-2-((4-Allyl-5-(1H-indol-3-yl)-4H-1,2,4-triazol-3-yl)thio)-1-phenylethanone Oxime]	3.82	-3.51	-5.82	7.6	7.6	-2.96	15.4	12.1	-1.28	3.34	4.48	-6.66	-8.19	-3.15	9.77	-4.5	-4.36	2.21	2.4	6.82	inhibition at 10 µM (SR): -10.3%; inhibition at 10 µM (TK-10): -12.2%; anticancer activity (in words) (NCI 60 cell lines): minimal anticancer activity
C=CCn1c(SC/C(=N\O)c2ccc(C)cc2)nnc1-c1c[nH]c2ccccc12 [Compound 7c, (Z)-2-((4-allyl-5-(1H-indol-3-yl)-4H-1,2,4-triazol-3-yl)thio)-1-(p-tolyl)ethanone Oxime]	11.4	-7.22	-2.38	23.2	9.17	11.9	27.1	23.1	9.29	9.2	14.6	1.27	6.11	1.32	7.62	-5.46	-5.62	-0.26	11.7	8.04	inhibition at 10 µM (SR): 16.5%; inhibition at 10 µM (TK-10): -26.8%
C=CCn1c(SCC(=O)c2ccc(Br)cc2)nnc1-c1c[nH]c2ccccc12 [Compound 6d, 2-((4-Allyl-5-(1H-indol-3-yl)-4H-1,2,4-triazol-3-yl)thio)-1-(4-bromophenyl)ethenone]	11.7	-5.98	-6.19	13.3	9.34	2.11	13.1	9.93	4.98	-6.13	3.7	1.17	-8.69	3.19	21.7	-12.8	3.9	-13.1	4.39	-0.26	inhibition at 10 µM (SR): 11.3%; inhibition at 10 µM (TK-10): -34.3%; anticancer activity (in words) (NCI 60 cell lines): minimal anticancer activity
C=CCn1c(SCC(=O)c2ccccc2)nnc1-c1c[nH]c2ccccc12 [Compound 6a, 2-((4-Allyl-5-(1H-indol-3-yl)-4H-1,2,4-triazol-3-yl)thio)-1-phenylethanone]	6.19	-9.39	-9.05	11.6	13.4	2.77	12.3	12.2	0.39	-6.84	2.25	2.62	2.53	-3.17	10.9	-2.2	-5.22	-20.4	7.27	1.66	inhibition at 10 µM (SR): 23.5%; inhibition at 10 µM (TK-10): -43.9%
C=CCn1c(SCC(=O)c2ccc(Cl)cc2)nnc1-c1c[nH]c2ccccc12 [Compound 6e, 2-((4-Allyl-5-(1H-indol-3-yl)-4H-1,2,4-triazol-3-yl)thio)-1-(4-chlorophenyl)ethenone]	7.39	-0.26	-14.4	7.38	9.28	7.08	8	10.3	-7.09	-3.47	7.55	-2.31	-8	-5.38	22.3	-9.22	-10.1	-20.6	4.38	0.6	inhibition at 10 µM (SR): 12.2%; inhibition at 10 µM (TK-10): -24.3%; anticancer activity (in words) (NCI 60 cell lines): minimal anticancer activity
